For 2 compounds, IC50 and Concentration (nM (10e6*cells)-1) results are on record in ChEMBL document CHEMBL1131189, “Conformationally restricted analogues of 1N,12N-bisethylspermine: synthesis and growth inhibitory effects on human tumor cell lines” (1998).

One assay deals with A549. The experiment in a line: Growth inhibitory activity was measured for human A549 tumor cell line. As to conditions: Homo sapiens, A549; read-out: ID50 (the source's name). Format: functional.
Assay [1] relates to DU-145. As to the kind of experiment: The concentration levels of putrescine (PU) evaluated in DU145 cells treated with the compound concentration of 10 uM on fifth day of treatment. Format: functional, cell-based. As to conditions: Homo sapiens.
In assay [2] the test system is DU-145. As to the kind of experiment: The concentration levels of putrescine (PU) evaluated in DU145 cells treated with the compound concentration of 10 uM on third day of treatment. Format: functional, cell-based. The conditions noted are these: Homo sapiens.
Assay [3] concerns DU-145. The experiment in a line: The concentration levels of spermidine (SD) evaluated in DU145 cells treated with the compound concentration of 10 uM on fifth day of treatment. Format: functional, cell-based. The conditions noted are these: Homo sapiens.
Assay [4] deals with DU-145. The experiment in a line: The concentration levels of spermidine (SD), evaluated in DU145 cells treated with the compound concentration of 10 uM on third day of treatment. Format: functional, cell-based. As to conditions: Homo sapiens.
Assay [5] concerns DU-145. The experiment in a line: The concentration levels of analogue evaluated in DU145 cells treated with the compound concentration of 10 uM on fifth day of treatment. Format: functional, cell-based. The conditions noted are these: Homo sapiens.
Assay [6] concerns DU-145. The experiment in a line: The concentration levels of analogue evaluated in DU145 cells treated with the compound concentration of 10 uM on third day of treatment. The assay is classed as functional, cell-based. The conditions noted are these: Homo sapiens.
For assay [7], the system named is DU-145. The experiment in a line: The concentration levels of spermine (SP) evaluated in DU145 cells treated with the compound concentration of 10 uM on fifth day of treatment. Format: functional, cell-based. As to conditions: Homo sapiens.
Assay [8] deals with DU-145. The experiment in a line: The concentration levels of spermine (SP), evaluated in DU145 cells treated with the compound concentration of 10 uM on third day of treatment. As to conditions: Homo sapiens. The assay is classed as functional, cell-based.
The test system of a further assay is HT-29. The experiment in a line: Growth inhibitory activity was measured for human HT-29 tumor cell line. Format: functional. The conditions noted are these: Homo sapiens, HT-29; read-out: ID50 (the source's name).
A further assay relates to MCF7. As to the kind of experiment: Growth inhibitory activity was measured for human MCF-7 tumor cell line. Format: functional. As to conditions: read-out: ID50 (the source's name).
For another assay, the system named is PC-3. The experiment in a line: Growth inhibitory activity was measured for human PC-3 tumor cell line. As to conditions: Homo sapiens, PC-3; read-out: ID50 (the source's name). The assay is classed as functional.
In another assay the test system is U-251. The experiment in a line: Growth inhibitory activity was measured for human U251MG NCI tumor cell line. The assay is classed as functional. As to conditions: read-out: ID50 (the source's name).
Assay [9] relates to DU-145. The experiment in a line: The concentration levels of spermidine (SD) evaluated in DU145 cells treated with the compound concentration of 2 uM on third day of treatment. The assay is classed as functional, cell-based. The conditions noted are these: Homo sapiens.
In assay [10] the test system is DU-145. The experiment in a line: The concentration levels of spermidine (SD) evaluated in DU145 cells treated with the compound concentration of 0.02 uM on third day of treatment. Format: functional, cell-based. As to conditions: Homo sapiens.
The test system of assay [11] is DU-145. The experiment in a line: The concentration levels of spermidine (SD), evaluated in DU145 cells treated with the compound concentration of 0.02 uM on first day of treatment. Format: functional, cell-based. The conditions noted are these: Homo sapiens.
For assay [12], the system named is DU-145. As to the kind of experiment: The concentration levels of spermidine (SD), evaluated in DU145 cells treated with the compound concentration of 2 uM on first day of treatment. As to conditions: Homo sapiens. The assay is classed as functional, cell-based.
The subject of assay [13] is DU-145. As to the kind of experiment: The concentration levels of analogue evaluated in DU145 cells treated with the compound concentration of 0.02 uM on first day of treatment. Format: functional, cell-based. The conditions noted are these: Homo sapiens.
In assay [14] the test system is DU-145. The experiment in a line: The concentration levels of analogue evaluated in DU145 cells treated with the compound concentration of 0.02 uM on third day of treatment. The conditions noted are these: Homo sapiens. Format: functional, cell-based.
The test system of assay [15] is DU-145. As to the kind of experiment: The concentration levels of analogue evaluated in DU145 cells treated with the compound concentration of 2 uM on first day of treatment. Format: functional, cell-based. As to conditions: Homo sapiens.
In assay [16] the test system is DU-145. As to the kind of experiment: The concentration levels of analogue evaluated in DU145 cells treated with the compound concentration of 2 uM on third day of treatment. Format: functional, cell-based. The conditions noted are these: Homo sapiens.
For assay [17], the system named is DU-145. The experiment in a line: The concentration levels of spermine (SP) evaluated in DU145 cells treated with the compound concentration of 0.02 uM on third day of treatment. Format: functional, cell-based. As to conditions: Homo sapiens.
The subject of assay [18] is DU-145. The experiment in a line: The concentration levels of spermine (SP) evaluated in DU145 cells treated with the compound concentration of 2 uM on third day of treatment. Format: functional, cell-based. As to conditions: Homo sapiens.
In assay [19] the test system is DU-145. The experiment in a line: The concentration levels of spermine (SP), evaluated in DU145 cells treated with the compound concentration of 0.02 uM on first day of treatment. The assay is classed as functional, cell-based. The conditions noted are these: Homo sapiens.
Assay [20] concerns DU-145. The experiment in a line: The concentration levels of spermine (SP), evaluated in DU145 cells treated with the compound concentration of 2 uM on first day of treatment. Format: functional, cell-based. The conditions noted are these: Homo sapiens.
The test system of assay [21] is DU-145. As to the kind of experiment: The concentration levels of putrescine (PU) evaluated in DU145 cells treated with the compound concentration of 0.02 uM on first day of treatment. The assay is classed as functional, cell-based. As to conditions: Homo sapiens.
In assay [22] the test system is DU-145. As to the kind of experiment: The concentration levels of putrescine (PU) evaluated in DU145 cells treated with the compound concentration of 0.02 uM on third day of treatment. The assay is classed as functional, cell-based. The conditions noted are these: Homo sapiens.
The subject of assay [23] is DU-145. The experiment in a line: The concentration levels of putrescine (PU) evaluated in DU145 cells treated with the compound concentration of 2 uM on first day of treatment. The assay is classed as functional, cell-based. As to conditions: Homo sapiens.
The test system of assay [24] is DU-145. The experiment in a line: The concentration levels of putrescine (PU) evaluated in DU145 cells treated with the compound concentration of 2 uM on third day of treatment. The assay is classed as functional, cell-based. The conditions noted are these: Homo sapiens.

A value given as a limit tells only on which side of the number the result lay.

Consider `CCNCCCNCc1ccccc1CNCCCNCC`, for which the IC50 in the assay on A549, in the assay on HT-29, in the assay with MCF7, with PC-3 and in the assay with U-251 was greater than 31.2 µM in each case. The Concentration (nM (10e6*cells)-1) in the assay on DU-145 [1] is 0.06; with DU-145 [2], 0.12; with DU-145 [3] it was 1.84; with DU-145 [4], 1.5; in the assay on DU-145 [5], 1.25; in the assay with DU-145 [6], 0.82. Moreover, the Concentration (nM (10e6*cells)-1) in the assay on DU-145 [7] is 2.13; in the assay on DU-145 [8] it was 2.7.
For the compound `CCNCCCNCC1CC1CNCCCNCC` (stereo in doubt; 5), the Concentration (nM (10e6*cells)-1) in the assay with DU-145 [9] was 1.38; in the assay on DU-145 [10], 1.41; with DU-145 [11], 1.92; with DU-145 [12], 2.63; in the assay on DU-145 [13], 0.14; in the assay on DU-145 [14], 0.06. Besides, the Concentration (nM (10e6*cells)-1) in the assay on DU-145 [15] worked out at 0.33; with DU-145 [16] it was 0.18; with DU-145 [17], 2.73; in the assay with DU-145 [18] it was 2.28; with DU-145 [19] it was 2.48; in the assay on DU-145 [20] it was 2.64. Also, the Concentration (nM (10e6*cells)-1) in the assay with DU-145 [21] amounted to 0.2; in the assay with DU-145 [22], 0.08; in the assay on DU-145 [23] it was 0.55; with DU-145 [24] it was 0.05.
